Data from patent US20240246960A1 (adMare Therapeutics Society, priority 2021, published 2024).

Target: T1, DNA-PK phosphorylation at Serine 2056 (Homo sapiens, UniProt P78527)
T1 construct: host or cells: FaDu
Assay: Cellular Assay for Inhibition of DNA-PK Phosphorylation at Serine 2056 (FaDu cells, neocarzinostatin, sandwich ELISA)
Type: cell-based
Conditions: Table 3
Protocol: FaDu cells were purchased from ATCC and maintained in MEM alpha medium (Life Technologies, cat. no. 12561) supplemented with 10% fetal bovine serum, and 1% GlutaMAX at 37° C. supplemented with 5% CO2. 50,000 cells were seeded to each well of a 96-well cell culture plate in 50 μL of culture medium and incubated for 16-24 hours. Three-fold serially diluted compounds were prepared in DMSO. Culture media was used to prepare compound treatments to 0.3% DMSO (dimethyl sulphoxide) content. Compound treatments were added to the cells for 1 hour prior incubation, followed by the addition of neocarzinostatin in fresh culture medium to 1 μg/mL final concentration for an additional 2 hours incubation to induce DNA DSBs (double-strand breaks). DMSO controls were incubated with fresh culture medium alone for the additional two hours incubation. The cells were then lysed and frozen at −20° C. Cell lysates were thawed on wet ice and protein concentrations quantified by BCA Protein Assay (Thermo # 23225). Lysis buffer was used to normalize lysates by protein content and all lysates were then investigated by sandwich ELISA by means of DNA-PK-specific antibodies (Abcam ab44815: total DNA-PK; ab124918: phosphoserine-2056 DNA-PK) in sandwich ELISA format on the MSD S600MM platform (MesoScale Discovery). % inhibition was calculated for all data points: =1−(DATA_PT−AVERAGE(DMSO controls))/(AVERAGE(NCS controls)−AVERAGE(DMSO controls)). Logarithm of the molar concentration of compound was plotted against percent inhibition to calculate IC50 values, with curve fit settings for data fit to log(inhibitor) vs. normalized response—Variable slope using curve fit software (GraphPad Prism).

Row | SMILES | IC50
1 | COc1cc(C#N)cnc1N[C@H]1CC[C@@H](Oc2nc(N3CCOCC3)cc3ncc(NS(C)(=O)=O)cc23)CC1 [LFA1025, N-[5-[4-[(5-cyano-3-methoxy-2-pyridyl)amino]cyclohexoxy]-7-morpholino-1,6-naphthyridin-3-yl]methanesulfonamide] | < 0.1 µM
2 | N#Cc1cnc(N[C@H]2CC[C@@H](Oc3nc(N4CCOCC4)cc4ncc(O)cc34)CC2)cn1 [LFA1026, 5-[[4-[(3-hydroxy-7-morpholino-1,6-naphthyridin-5-yl)oxy]cyclohexyl]amino]pyrazine-2-carbonitrile] | 0.1 to 1 µM
3 | COc1cnc(N[C@H]2CC[C@@H](Oc3nc(N4CCOCC4)cc4ncc(NS(C)(=O)=O)cc34)CC2)cn1 [LFA1028, N-[5-[4-[(5-methoxypyrazin-2-yl)amino]cyclohexoxy]-7-morpholino-1,6-naphthyridin-3-yl]methanesulfonamide] | < 0.1 µM
4 | CS(=O)(=O)Nc1cnc2cc(N3CCOCC3)nc(O[C@H]3CC[C@@H](Nc4nccnc4C(F)(F)F)CC3)c2c1 [LFA1029, N-[7-morpholino-5-[4-[[3-(trifluoromethyl)pyrazin-2-yl]amino]cyclohexoxy]-1,6-naphthyridin-3-yl]methanesulfonamide] | < 0.1 µM
5 | CS(=O)(=O)Nc1cnc2cc(N3CCOCC3)nc(O[C@H]3CC[C@@H](Nc4cncc(C(F)(F)F)n4)CC3)c2c1 [LFA1030, N-[7-morpholino-5-[4-[[6-(trifluoromethyl)pyrazin-2-yl]amino]cyclohexoxy]-1,6-naphthyridin-3-yl]methanesulfonamide] | 0.1 to 1 µM
6 | CS(=O)(=O)Nc1cnc2cc(N3CCOCC3)nc(O[C@H]3CC[C@@H](Nc4cncc(C#N)n4)CC3)c2c1 [LFA1031, N-[5-[4-[(6-cyanopyrazin-2-yl)amino]cyclohexoxy]-7-morpholino-1,6-naphthyridin-3-yl]methanesulfonamide] | < 0.1 µM
7 | CS(=O)(=O)Nc1cnc2cc(N3CCOCC3)nc(O[C@H]3CC[C@@H](Nc4nccnc4C#N)CC3)c2c1 [LFA1032, N-[5-[4-[(3-cyanopyrazin-2-yl)amino]cyclohexoxy]-7-morpholino-1,6-naphthyridin-3-yl]methanesulfonamide] | < 0.1 µM
8 | CS(=O)(=O)Nc1cnc2cc(N3CCOCC3)nc(O[C@H]3CC[C@@H](Nc4ccnc(C#N)n4)CC3)c2c1 [LFA1033, N-[5-[4-[(2-cyanopyrimidin-4-yl)amino]cyclohexoxy]-7-morpholino-1,6-naphthyridin-3-yl]methanesulfonamide] | 0.1 to 1 µM
9 | CS(=O)(=O)Nc1cnc2cc(N3CCOCC3)nc(O[C@H]3CC[C@@H](Nc4ccccn4)CC3)c2c1 [LFA1034, N-[7-morpholino-5-[4-(2-pyridylamino)cyclohexoxy]-1,6-naphthyridin-3-yl]methanesulfonamide] | < 0.1 µM
10 | CS(=O)(=O)Nc1cnc2cc(N3CCOCC3)nc(O[C@H]3CC[C@@H](Nc4ccnc(C(F)(F)F)n4)CC3)c2c1 [LFA1035, N-[7-morpholino-5-[4-[[2-(trifluoromethyl)pyrimidin-4-yl]amino]cyclohexoxy]-1,6-naphthyridin-3-yl]methanesulfonamide] | 0.1 to 1 µM
11 | CS(=O)(=O)Nc1cnc2cc(N3CCOCC3)nc(O[C@H]3CC[C@@H](Nc4cnc(C#N)cn4)CC3)c2c1 [LFA1036, N-[5-[4-[(5-cyanopyrazin-2-yl)amino]cyclohexoxy]-7-morpholino-1,6-naphthyridin-3-yl]methanesulfonamide] | < 0.1 µM
12 | CS(=O)(=O)Nc1cnc2cc(N3CCOCC3)nc(O[C@H]3CC[C@@H](Nc4cnc(C(F)(F)F)cn4)CC3)c2c1 [LFA1037, N-[7-morpholino-5-[4-[[5-(trifluoromethyl)pyrazin-2-yl]amino]cyclohexoxy]-1,6-naphthyridin-3-yl]methanesulfonamide] | < 0.1 µM
13 | COc1nc(NC2CCC(Oc3nc(N4CCOCC4)cc4ncc(NS(C)(=O)=O)cc34)CC2)ncc1C#N (stereo not drawn) [LFA1038, N-[5-[4-[(5-cyano-4-methoxy-pyrimidin-2-yl)amino]cyclohexoxy]-7-morpholino-1,6-naphthyridin-3-yl]methanesulfonamide] | 0.1 to 1 µM
14 | Cc1nc(N[C@H]2CC[C@@H](Oc3nc(N4CCOCC4)cc4ncc(NS(C)(=O)=O)cc34)CC2)ncc1F [LFA1039, N-[5-[4-[(5-fluoro-4-methyl-pyrimidin-2-yl)amino]cyclohexoxy]-7-morpholino-1,6-naphthyridin-3-yl]methanesulfonamide;2,2,2-trifluoroacetic acid] | < 0.1 µM
15 | COc1nc(N[C@H]2CC[C@@H](Oc3nc(N4CCOCC4)cc4ncc(NS(C)(=O)=O)cc34)CC2)ncc1C [LFA1040, N-[5-[4-[(4-methoxy-5-methyl-pyrimidin-2-yl)amino]cyclohexoxy]-7-morpholino-1,6-naphthyridin-3-yl]methanesulfonamide] | 0.1 to 1 µM
16 | CN(C)c1ccnc(N[C@H]2CC[C@@H](Oc3nc(N4CCOCC4)cc4ncc(NS(C)(=O)=O)cc34)CC2)n1 [LFA1041, N-[5-[4-[[4-(dimethylamino)pyrimidin-2-yl]amino]cyclohexoxy]-7-morpholino-1,6-naphthyridin-3-yl]methanesulfonamide] | 0.1 to 1 µM
17 | CS(=O)(=O)Nc1cnc2cc(N3CCOCC3)nc(O[C@H]3CC[C@@H](Nc4nccc(C#N)n4)CC3)c2c1 [LFA1042, N-[5-[4-[(4-cyanopyrimidin-2-yl)amino]cyclohexoxy]-7-morpholino-1,6-naphthyridin-3-yl]methanesulfonamide;2,2,2-trifluoroacetic acid] | < 0.1 µM
18 | Cc1cc(C#N)nc(N[C@H]2CC[C@@H](Oc3nc(N4CCOCC4)cc4ncc(NS(C)(=O)=O)cc34)CC2)n1 [LFA1043, N-[5-[4-[(4-cyano-6-methyl-pyrimidin-2-yl)amino]cyclohexoxy]-7-morpholino-1,6-naphthyridin-3-yl]methanesulfonamide;2,2,2-trifluoroacetic acid] | < 0.1 µM
19 | CS(=O)(=O)Nc1cnc2cc(N3CCOCC3)nc(O[C@H]3CC[C@@H](Nc4nccc(C(F)(F)F)n4)CC3)c2c1 [LFA1044, N-[7-morpholino-5-[4-[[4-(trifluoromethyl)pyrimidin-2-yl]amino]cyclohexoxy]-1,6-naphthyridin-3-yl]methanesulfonamide] | 0.1 to 1 µM
20 | CS(=O)(=O)Nc1cnc2cc(N3CCOCC3)nc(O[C@H]3CC[C@@H](Nc4cnccn4)CC3)c2c1 [LFA1045, N-[7-morpholino-5-[4-(pyrazin-2-ylamino)cyclohexoxy]-1,6-naphthyridin-3-yl]methanesulfonamide;2,2,2-trifluoroacetic acid] | < 0.1 µM
21 | Cc1ccnc(N[C@H]2CC[C@@H](Oc3nc(N4CCOCC4)cc4ncc(NS(C)(=O)=O)cc34)CC2)n1 [LFA1047] | < 0.1 µM
22 | Cc1cnc(N[C@H]2CC[C@@H](Oc3nc(N4CCOCC4)cc4ncc(NS(C)(=O)=O)cc34)CC2)nc1 [LFA1048, N-[5-[4-[(5-methylpyrimidin-2-yl)amino]cyclohexoxy]-7-morpholino-1,6-naphthyridin-3-yl]methanesulfonamide] | < 0.1 µM
23 | CN(C)Cc1cnc(N[C@H]2CC[C@@H](Oc3nc(N4CCOCC4)cc4ncc(NS(C)(=O)=O)cc34)CC2)nc1 [LFA1049, N-[5-[4-[[5-[(dimethylamino)methyl]pyrimidin-2-yl]amino]cyclohexoxy]-7-morpholino-1,6-naphthyridin-3-yl]methanesulfonamide] | < 0.1 µM
24 | Cc1ccc(N[C@H]2CC[C@@H](Oc3nc(N4CCOCC4)cc4ncc(O)cc34)CC2)nc1 [LFA1051, 5-[4-[(5-methyl-2-pyridyl)amino]cyclohexoxy]-7-morpholino-1,6-naphthyridin-3-ol] | 0.1 to 1 µM
